Our source for the Ki values is ChEMBL document CHEMBL5137053 (J Med Chem, 2022).

This assay in a line: Binding affinity to NL63-CoV main protease by FRET assay. Also on record: species or system Human coronavirus NL63.

Usually Ki stands for a dissociation constant, usually derived from enzyme kinetics or from competition with a known ligand. A low value points to a stronger hold on the target.

For the molecule `CC(C)(C)[C@H](NC(=O)C(F)(F)F)C(=O)N1C[C@H]2[C@@H]([C@H]1C(=O)N[C@H](C#N)C[C@@H]1CCNC1=O)C2(C)C`, the affinity, expressed as Ki, was 226 nM.
